Experimental data as given in article PMC8698482, “WPK5, a Novel Kunitz-Type Peptide from the Leech Whitmania pigra Inhibiting Factor XIa, and Its Loop-Replaced Mutant to Improve Potency” (Biomedicines, 2021).

System: C57BL/6J mice
Test: FeCl3-induced carotid artery thrombosis model
Format: in vivo
Settings: heparin sodium 2.7 mg/kg by tail vein 10 min before 6% FeCl3; observed 30 min; n = 6
Experimental: The in vivo antithrombotic activity of WPK5-Mut was evaluated by using a FeCl3-induced carotid artery thrombosis model in mice. Mice (C57BL/6J, males, 18–22 g) were anesthetized by intraperitoneal injection of chloral hydrate (5%, 10 mL/kg) and then placed in a supine position on a heating pad (37 °C) to maintain body temperature. An incision was made in the middle of the mouse’s neck and the fascia and muscle were gradually separated to expose the carotid artery. A rubber strip (4 × 10 mm) was placed under the artery to separate it from the surrounding tissues, and mice were injected heparin sodium (2.7 mg/kg), WPK5-Mut (0.75, 1.5 and 3 mg/kg) or saline through the tail vein and placed under a laser speckle contrast imaging (moor FLPI-2, Moor Instruments Limited, Millwey, Axminster, Devon, EX13 5HU, UK) to observe the carotid blood flow. […] The occlusion time was defined as the time from the removal of the FeCl3 saturated filter paper to the blockage of the vessel for at least 3 consecutive min [44]. If a vessel is blocked at a certain time for 3 consecutive min, this time is recorded as occlusion time, and if no blockage occurs within 30 min, the occlusion time is recorded as 30 min. The blood flow was analyzed by moorFLPI ReviewV50 software.

heparin sodium
occlusion time: > 30 min
